# Measured values from US8697639B2, “Compositions and methods for treating bacteria” (Biosynexus Incorporated, priority 2005, dated 2014).
# Bridge positions count the residues as written; N and C are the ends. Square brackets hold non-standard residues; d marks the D form. Peptide text beside a SMILES is read from it. * marks the point of attachment. Ileψ(thiazoline)Cys = CC[C@H](C)[C@H](N)C1=N[C@H](C(=O)*)CS1; dOrn = NCCC[C@@H](N)C(=O)O
# Tests used:
# [1] = tested on: S. aureus; experiment: In vitro MIC of nisin alone or in combination (log reduction of viable S. aureus); type: cell-based; details: FIG. 11
# Protocol: In order to determine if nisin could function in a synergistic way with other antimicrobials to treat (e.g., kill and/or inhibit growth of) bacteria in vitro, the minimum inhibitory concentration (MIC) of nisin alone or nisin in combination with either mupirocin, neomycin or gentamicin were tested. The MIC was determined by calculating the log reduction of viable S. aureus following incubation with the amounts of nisin and other antimicrobials as indicated in FIG. 11.
# [2] = tested on: S. aureus; experiment: Mouse skin infection model: S. aureus infection in abraded mouse skin treated with topical ointment; type: in vivo; details: for synergy or additive effect with nisin in the skin infection model (in words): combination with nisin; for synergy or additive effect with nisin in the skin infection model (in words) / synergy with mupirocin in the skin infection model (in words): superficial wound model; for synergy with mupirocin in the skin infection model (in words): combination with mupirocin
# Protocol: (§1) Mouse Skin Infection Model: An overnight culture of S. aureus grown in tryptic soy broth (SA8; range from 1 to 6×10^9 CFUs/mL) was centrifuged at 4000×g for 10 minutes and resuspended in an equal volume of phosphate buffered saline (PBS). The bacteria were diluted to a percent transmittance of 40 (Spectronic 20D+) and diluted a subsequent 1:1000 in PBS for a final bacteria concentration of about 3×10^5. SKH1 (hrhr) hairless mice (Charles River) were sedated with 0.2 mL of ketamine (80 mg/kg) and xylazine (32 mg/kg) delivered intraperitoneally. The upper back of the mice were scrubbed with a 70% alcohol wipe and allowed to dry. Fine abrasions were made on the backs of the mice between the shoulders using 150 grit sandpaper. Bacteria were swabbed over the abraded area with a sterile, cotton-tipped applicator until the area was saturated with the solution.
# Topical Ointment: 74 g of PEG 400 and 24 g of PEG 3350 were added to a 250 mL glass beaker and heated until all of the PEG 3350 was melted. […] Lysostaphin was first dissolved to a concentration of about 150 mg/mL in DI water before mixing into the ointment to give a final concentration of 2% (w/w).
# Treatment of Infected Skin with Topical Ointment: Treatments aimed to eradicate S. aureus skin infections in the mouse model were started on the morning after infection (Day 1). […] The mice were sacrificed by CO2 asphyxiation on the morning of Day 3 and a 0.5-cm^2 patch of skin around the infected area was excised. The skin sample was disected and placed into a test tube containing 1 mL of 5 mg/mL proteinase K, 20 mg/mL esterase, and 20 mg/mL activated charcoal in PBS to neutralize the activity of the antibacterial agents. Bacteria were dislodged from the skin sample by sonication: 2 minute treatments per sample with alternating 5 seconds at 3 W and 5 seconds at 0 W in a Virsonic 600 with microtip (VirTis). After mixing by vortex, 50 μL of each sample was streaked onto blood agar plates, incubated at 37° C. overnight, and the colonies were counted and compared to untreated controls.
# For the following data, except where noted in FIG. 2, all antibiotic formulations were in a common polyethylene glycol (PEG) ointment (PEG 400 plus PEG 3350).
# [3] = tested on: Staphylococcus aureus ATCC #6538; experiment: Pig partial thickness wounds inoculated with Staphylococcus aureus; type: in vivo
# [4] = tested on: P. aeruginosa; experiment: P. aeruginosa infection in abraded mouse skin; type: in vivo; details: FIG. 4
# [5] = tested on: P. aeruginosa; details: previously shown; cited from earlier work
# [6] = tested on: S. aureus; experiment: Suture skin infection model (deep tissue infection) in mouse; type: in vivo; details: deep cut, FIG. 13
# Protocol: It was determined whether nisin and mupirocin, either alone or in combination with each other, would be able to treat S. aureus in a deep tissue infection model. A suture skin infection model was generated in which a deep cut (e.g., one needing sutures to close) was made in a mouse and S. aureus introduced into the incision. […] Thus, a combination of nisin and mupirocin can be used to treat a deep tissue infection as well as a […] infection.
# [7] = tested on: S. aureus strain resistant to mupirocin; experiment: Mupirocin-resistant S. aureus infection in abraded mouse skin; type: in vivo; details: FIG. 3
# Protocol: as §1
# Topical Ointment: 74 g of PEG 400 and 24 g of PEG 3350 were added to a 250 mL glass beaker and heated until all of the PEG 3350 was melted. […]
# Treatment of Infected Skin with Topical Ointment: Treatments aimed to eradicate S. aureus skin infections in the mouse model were started on the morning after infection (Day 1). […] After mixing by vortex, 50 μL of each sample was streaked onto blood agar plates, incubated at 37° C. overnight, and the colonies were counted and compared to untreated controls.
Compound,synergy with nisin in vitro (in words) [1],synergy or additive effect with nisin in the skin infection model (in words) [2],synergy with mupirocin in the skin infection model (in words) [2],further results
gentamicin,does not synergize,did synergize,,
C/C(=C\C(=O)OCCCCCCCCC(=O)O)C[C@@H]1OC[C@H](C[C@@H]2O[C@H]2[C@@H](C)[C@H](C)O)[C@@H](O)[C@H]1O [mupirocin],does not synergize,,,"Staphylococcus aureus recovered from wounds ([3]; Day 7 post treatment, FIG. 8): 1.63 Log cfu/ml; Staphylococcus aureus recovered from wounds ([3]; two days after initial treatment, treated twice per day, FIG. 6): 4.96±0.8 Log CFU/ml; activity relative to nisin formulation (in words) [4]: does not add any additional activity; activity against P. aeruginosa (in words) [5]: poor activity; efficacy in treating S. aureus in suture infection model (in words) [6]: very little efficacy; activity against mupirocin-resistant S. aureus (in words) [7]: minimal activity; decrease of infectious CFUs ([2]; abraded mouse skin, PEG ointment 3 times a day on Days 1 and 2, FIG. 1, for combinations: residual infections): 3 logs"
CC[C@H](C)[C@H](N)C1=N[C@H](C(=O)N[C@@H](CC(C)C)C(=O)N[C@H](CCC(=O)O)C(=O)N[C@H](C(=O)N[C@H]2CCCCNC(=O)[C@H](CC(N)=O)NC(=O)[C@@H](CC(=O)O)NC(=O)[C@H](Cc3cnc[nH]3)NC(=O)[C@@H](Cc3ccccc3)NC(=O)[C@H]([C@@H](C)CC)NC(=O)[C@@H](CCCN)NC2=O)[C@@H](C)CC)CS1 [bacitracin] ({Ileψ(thiazoline)Cys}-L[dE]IK[dOrn]I[dF]H[dD]N; lactam 4-C),,,did not synergize,
gallidermin,,did not synergize,did synergize,
neomycin,does not synergize,did not synergize,,
